ChEMBL document CHEMBL4715701, “A new chromanone derivative isolated from Hypericum lissophloeus (Hypericaceae) potentiates GABAA receptor currents in a subunit specific fashion” (Bioorg Med Chem, 2016)
Active and inactive are the calls of the source. The calls are words filed in the database; no cut-off is given here.

What was measured:
[1] = target: T1, GABA-A receptor; alpha-1/beta-2/gamma-2 (Homo sapiens) (UniProt P14867+P47870+P18507); assay: Allosteric modulation of GABAA alpha1beta2gamma2 (unknown origin) expressed in Xenopus oocytes assessed as potentiation of GABA-induced current response at 0.1 uM at -80 mV holding potential incubated for 3 mins by two electrode voltage clamp method relative to control; assay type: cell-based; conditions: Oocyte, filed as positive allosteric modulator
[2] = system: Oocyte; assay: Allosteric modulation of GABAA alpha6beta2gamma2 (unknown origin) expressed in Xenopus oocytes assessed as potentiation of GABA-induced current response at 3 uM at -80 mV holding potential incubated for 3 mins by two electrode voltage clamp method; assay type: cell-based; conditions: Homo sapiens, filed as positive allosteric modulator
[3] = Ex vivo inhibition of synaptosomal serotonin re-uptake 100 uM; assay type: functional, subcellular; conditions: Synaptosome
[4] = target: Gamma-aminobutyric acid receptor subunit alpha-1/beta-2/delta (Homo sapiens) (UniProt P14867+P47870+O14764); assay: Allosteric modulation of GABAA alpha1beta2delta (unknown origin) expressed in Xenopus oocytes assessed as potentiation of GABA-induced current response at 3 uM at -80 mV holding potential incubated for 3 mins by two electrode voltage clamp method; assay type: cell-based; conditions: Oocyte, filed as positive allosteric modulator
[5] = target: T1, GABA-A receptor; alpha-1/beta-2/gamma-2 (Homo sapiens); assay: Allosteric modulation of GABAA alpha1beta2gamma2 (unknown origin) expressed in Xenopus oocytes at 3 uM at -80 mV holding potential incubated for 3 mins by two electrode voltage clamp method relative to control; assay type: cell-based; conditions: Oocyte
[6] = system: Oocyte; assay: Allosteric modulation of GABAA alpha1beta2N265Igamma2 mutant (unknown origin) expressed in Xenopus oocytes assessed as potentiation of GABA-induced current response at 3 uM at -80 mV holding potential incubated for 3 mins by two electrode voltage clamp method; assay type: cell-based; conditions: Homo sapiens
[7] = target: GABA-A receptor; alpha-1/beta-3/gamma-2 (Homo sapiens) (UniProt P14867+P18507+P28472); assay: Allosteric modulation of GABAA alpha1beta3gamma2 (unknown origin) expressed in Xenopus oocytes assessed as potentiation of GABA-induced current response at 3 uM at -80 mV holding potential incubated for 3 mins by two electrode voltage clamp method; assay type: cell-based; conditions: Oocyte, filed as positive allosteric modulator
[8] = system: Oocyte; assay: Allosteric modulation of GABAA alpha1S269Ibeta2N265Igamma2S280I mutant (unknown origin) expressed in Xenopus oocytes assessed as potentiation of GABA-induced current response at 3 uM at -80 mV holding potential incubated for 3 mins by two electrode voltage clamp method; assay type: cell-based; conditions: Homo sapiens
[9] = target: T1, GABA-A receptor; alpha-1/beta-2/gamma-2 (Homo sapiens); assay: Allosteric modulation of GABAA alpha1beta2gamma2 (unknown origin) expressed in Xenopus oocytes assessed as potentiation of GABA-induced current response at 3 uM at -80 mV holding potential incubated for 3 mins by two electrode voltage clamp method; assay type: cell-based; conditions: Oocyte, filed as positive allosteric modulator
[10] = system: Oocyte; assay: Allosteric modulation of GABAA alpha1S269Ibeta2gamma2 mutant (unknown origin) expressed in Xenopus oocytes assessed as potentiation of GABA-induced current response at 3 uM at -80 mV holding potential incubated for 3 mins by two electrode voltage clamp method; assay type: cell-based; conditions: Homo sapiens
[11] = system: Oocyte; assay: Allosteric modulation of GABAA alpha1beta2gamma2S280I mutant (unknown origin) expressed in Xenopus oocytes assessed as potentiation of GABA-induced current response at 3 uM at -80 mV holding potential incubated for 3 mins by two electrode voltage clamp method; assay type: cell-based; conditions: Homo sapiens
[12] = target: T1, GABA-A receptor; alpha-1/beta-2/gamma-2 (Homo sapiens); assay: Allosteric modulation of GABAA alpha1beta2gamma2 (unknown origin) expressed in Xenopus oocytes assessed as potentiation of GABA-induced current response at -80 mV holding potential incubated for 3 mins by two electrode voltage clamp method relative to control; assay type: cell-based; conditions: Oocyte, filed as positive allosteric modulator
[13] = target: T1, GABA-A receptor; alpha-1/beta-2/gamma-2 (Homo sapiens); assay: Allosteric modulation of GABAA alpha1beta2gamma2 (unknown origin) expressed in Xenopus oocytes assessed as potentiation of GABA-induced current response at 30 uM at -80 mV holding potential incubated for 3 mins by two electrode voltage clamp method; assay type: cell-based; conditions: Oocyte, filed as positive allosteric modulator
[14] = target: T1, GABA-A receptor; alpha-1/beta-2/gamma-2 (Homo sapiens); assay: Allosteric modulation of GABAA alpha1beta2gamma2 (unknown origin) expressed in Xenopus oocytes assessed as potentiation of GABA-induced current response at 10 uM at -80 mV holding potential incubated for 3 mins by two electrode voltage clamp method; assay type: cell-based; conditions: Oocyte, filed as positive allosteric modulator
[15] = system: Oocyte; assay: Allosteric modulation of GABAA alpha3beta2gamma2 (unknown origin) expressed in Xenopus oocytes assessed as potentiation of GABA-induced current response at 3 uM at -80 mV holding potential incubated for 3 mins by two electrode voltage clamp method; assay type: cell-based; conditions: Homo sapiens, filed as positive allosteric modulator
[16] = target: Gamma-aminobutyric acid receptor subunit alpha-5/beta-2/gamma-2 (Homo sapiens) (UniProt P47870+P18507+P31644); assay: Allosteric modulation of GABAA alpha5beta2gamma2 (unknown origin) expressed in Xenopus oocytes assessed as potentiation of GABA-induced current response at 3 uM at -80 mV holding potential incubated for 3 mins by two electrode voltage clamp method; assay type: cell-based; conditions: Oocyte, filed as positive allosteric modulator
[17] = species: Homo sapiens; assay: Allosteric modulation of GABA(A)/BzR (unknown origin) assessed as potentiation of GABA-induced current response at 3 uM relative to control; conditions: filed as positive allosteric modulator
[18] = target: T2, GABA-A receptor; alpha-1/beta-2/gamma-2 (Homo sapiens, UniProt P14867+P18507+P47870); assay: Allosteric modulation of GABAA alpha1beta2gamma2 (unknown origin) expressed in Xenopus oocytes assessed as potentiation of GABA-induced current response at -80 mV holding potential incubated for 3 mins by two electrode voltage clamp method; assay type: cell-based, Oocyte
T2 sequence (P14867 whole entry): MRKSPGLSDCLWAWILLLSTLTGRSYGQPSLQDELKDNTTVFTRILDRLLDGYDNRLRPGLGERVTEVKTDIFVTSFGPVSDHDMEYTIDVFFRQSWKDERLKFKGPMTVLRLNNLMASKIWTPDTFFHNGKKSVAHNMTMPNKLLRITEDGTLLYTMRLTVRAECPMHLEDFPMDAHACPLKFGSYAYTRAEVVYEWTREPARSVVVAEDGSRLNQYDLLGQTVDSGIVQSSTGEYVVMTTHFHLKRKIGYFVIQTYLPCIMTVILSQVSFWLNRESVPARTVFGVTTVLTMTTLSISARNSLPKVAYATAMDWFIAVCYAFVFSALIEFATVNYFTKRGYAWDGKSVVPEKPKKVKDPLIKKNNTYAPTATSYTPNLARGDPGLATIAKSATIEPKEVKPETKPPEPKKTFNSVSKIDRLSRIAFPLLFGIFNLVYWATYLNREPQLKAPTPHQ
T2 sequence (P47870 whole entry): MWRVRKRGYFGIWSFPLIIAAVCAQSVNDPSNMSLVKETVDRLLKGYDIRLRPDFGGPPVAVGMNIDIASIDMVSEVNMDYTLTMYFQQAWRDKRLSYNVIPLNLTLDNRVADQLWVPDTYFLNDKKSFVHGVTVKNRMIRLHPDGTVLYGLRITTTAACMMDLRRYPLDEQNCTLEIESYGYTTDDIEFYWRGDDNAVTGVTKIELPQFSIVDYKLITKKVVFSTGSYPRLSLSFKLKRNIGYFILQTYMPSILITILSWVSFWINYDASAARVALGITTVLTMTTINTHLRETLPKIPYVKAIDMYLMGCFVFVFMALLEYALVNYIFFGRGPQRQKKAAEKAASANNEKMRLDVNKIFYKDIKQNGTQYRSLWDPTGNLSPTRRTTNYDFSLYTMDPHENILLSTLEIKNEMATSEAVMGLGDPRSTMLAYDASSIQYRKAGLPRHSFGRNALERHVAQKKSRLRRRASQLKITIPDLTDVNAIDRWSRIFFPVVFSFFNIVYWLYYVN
T2 sequence (P18507 whole entry): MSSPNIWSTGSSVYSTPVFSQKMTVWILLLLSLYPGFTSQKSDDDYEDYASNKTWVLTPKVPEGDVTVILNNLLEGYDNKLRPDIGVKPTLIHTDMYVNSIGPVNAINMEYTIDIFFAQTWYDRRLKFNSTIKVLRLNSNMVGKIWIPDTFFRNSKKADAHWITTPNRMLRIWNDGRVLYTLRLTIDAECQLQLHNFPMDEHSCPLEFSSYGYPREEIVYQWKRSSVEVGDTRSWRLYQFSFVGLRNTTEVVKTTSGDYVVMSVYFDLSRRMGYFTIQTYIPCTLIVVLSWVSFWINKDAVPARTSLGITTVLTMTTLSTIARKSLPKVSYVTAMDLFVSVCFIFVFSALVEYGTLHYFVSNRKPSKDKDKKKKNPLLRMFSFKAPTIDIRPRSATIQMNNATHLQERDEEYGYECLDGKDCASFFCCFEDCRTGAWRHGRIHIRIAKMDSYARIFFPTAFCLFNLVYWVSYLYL

[19] = target: GABA A receptor alpha-1/beta-1/gamma-2 (Homo sapiens) (UniProt P14867+P18507+P18505); assay: Allosteric modulation of GABAA alpha1beta1gamma2 (unknown origin) expressed in Xenopus oocytes assessed as potentiation of GABA-induced current response at 3 uM at -80 mV holding potential incubated for 3 mins by two electrode voltage clamp method; assay type: cell-based; conditions: Oocyte, filed as positive allosteric modulator
[20] = target: T1, GABA-A receptor; alpha-1/beta-2/gamma-2 (Homo sapiens); assay: Allosteric modulation of GABAA alpha1beta2gamma2 (unknown origin) expressed in Xenopus oocytes assessed as potentiation of GABA-induced current response at 3 uM at -80 mV holding potential incubated for 3 mins by two electrode voltage clamp method relative to control; assay type: cell-based; conditions: Oocyte, filed as positive allosteric modulator
[21] = system: Oocyte; assay: Allosteric modulation of GABAA alpha2beta2gamma2 (unknown origin) expressed in Xenopus oocytes assessed as potentiation of GABA-induced current response at 3 uM at -80 mV holding potential incubated for 3 mins by two electrode voltage clamp method; assay type: cell-based; conditions: Homo sapiens, filed as positive allosteric modulator
[22] = Ex vivo inhibition of synaptosomal serotonin re-uptake 10 to 100 uM relative to control; assay type: functional, subcellular; conditions: Synaptosome; dose 10-100 µM

CN1C(=O)CN=C(c2ccccc2)c2cc(Cl)ccc21
Activity [1]: > 200%

CC(C)=CCc1c(O)cc2c(c1O)C(=O)[C@H](C)[C@@H](C)O2
Activity [2]: Active
inhibition [3]: inactive
Activity [4]: Active
Activity [5]: 0.71%
Activity [6]: inactive
Activity [7]: Active
Activity [8]: inactive
Activity [9]: Active
Activity [10]: inactive
Activity [11]: inactive
Activity [12]: 4430%
Activity [13]: Active
Activity [14]: Active
Activity [15]: Active
Activity [16]: Active
Activity [17]: 459%
EC50 [18]: 4.5 µM
Activity [19]: Active
Activity [1]: 60%
Activity [20]: 3830%
Activity [21]: Active

CC(C)=CCC[C@]1(C)[C@@H](CC=C(C)C)C[C@]2(CC=C(C)C)C(=O)C(CC=C(C)C)=C(O)[C@@]1(C(=O)C(C)C)C2=O
inhibition [22]: 100%
